Experimental data reported in ChEMBL document CHEMBL1201861, “Genomics of Drug Sensitity in Cancer screening data, Wellcome Trust Sanger Institute”.
Values joined by “and” are separate entries in the source; they are usually repeats but may differ in a detail not shown here. Equal entries are not always repeated.

Experiments:
Assay in all cases: cells
[1] = test system: ES3; format: functional, cell-based, Homo sapiens;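 note: growth inhibition of ES3 cells, read out with a cell viability assay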
[2] = test system: EW-13; format: functional, cell-based; settings: Homo sapiens;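 note: growth inhibition of EW-13 cells, read out with a cell viability assay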
Description: SANGER: Inhibition of human EW-13 cell growth in a cell viability assay.

[3] = test system: GB-1; format: functional, cell-based, Homo sapiens;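 note: growth of GB-1 cells judged by a viability assay, IC50 marks the concentration inhibiting growth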
Description: SANGER: Inhibition of human GB-1 cell growth in a cell viability assay.

[4] = test system: GCIY; format: functional, cell-based, Homo sapiens;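 note: growth inhibition of the human GCIY cell line, read out by a cell viability assay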
Description: SANGER: Inhibition of human GCIY cell growth in a cell viability assay.

[5] = test system: GOTO; format: functional, cell-based, Homo sapiens;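 note: growth inhibition of GOTO cells, read out by a cell viability assay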
Description: SANGER: Inhibition of human GOTO cell growth in a cell viability assay.

[6] = test system: GR-ST; format: functional, cell-based; settings: Homo sapiens
Description: SANGER: Inhibition of human GR-ST cell growth in a cell viability assay.

[7] = test system: GT3TKB; format: functional, cell-based, Homo sapiens;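 note: growth inhibition of the cell line, read out with a cell viability assay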
Description: SANGER: Inhibition of human GT3TKB cell growth in a cell viability assay.

[8] = test system: HC-1; format: functional, cell-based; settings: Homo sapiens;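 note: growth inhibition of HC-1 cells measured by a cell viability assay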
Description: SANGER: Inhibition of human HC-1 cell growth in a cell viability assay.

[9] = test system: HCC1395; format: functional, cell-based, Homo sapiens;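 note: growth inhibition of HCC1395 cells, read out by a cell viability assay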
Description: SANGER: Inhibition of human HCC1395 cell growth in a cell viability assay.

[10] = test system: HCC1419; format: functional, cell-based, Homo sapiens;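 note: growth inhibition of human HCC1419 cells, read out as cell viability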
Description: SANGER: Inhibition of human HCC1419 cell growth in a cell viability assay.

[11] = test system: HCC1937; format: functional, cell-based, Homo sapiens;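 note: growth inhibition measured with a cell viability read-out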
Description: SANGER: Inhibition of human HCC1937 cell growth in a cell viability assay.

[12] = test system: HPAF-II; format: functional, cell-based, Homo sapiens;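 note: growth inhibition of HPAF-II cells, read out with a cell viability assay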
Description: SANGER: Inhibition of human HPAF-II cell growth in a cell viability assay.

[13] = test system: HuCCT-1; format: functional, cell-based, Homo sapiens, HuCCT1;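 note: growth inhibition of HuCCT-1 cells, read out by a cell viability assay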
Description: SANGER: Inhibition of human HuCCT1 cell growth in a cell viability assay.

[14] = test system: HuP-T4; format: functional, cell-based, Homo sapiens;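 note: cell viability assay measuring how much HuP-T4 cell growth is inhibited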
Description: SANGER: Inhibition of human HuP-T4 cell growth in a cell viability assay.

[15] = test system: KP-N-YS; format: functional, cell-based; settings: Homo sapiens;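 note: cell viability assay measuring inhibition of cell line growth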
Description: SANGER: Inhibition of human KP-N-YS cell growth in a cell viability assay.

[16] = test system: KYSE-140; format: functional, cell-based, Homo sapiens;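 note: cell viability assay measuring growth inhibition in human KYSE-140 cells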
Description: SANGER: Inhibition of human KYSE-140 cell growth in a cell viability assay.

[17] = test system: KYSE-270; format: functional, cell-based, Homo sapiens;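 note: cell growth inhibition measured with a viability assay in the human KYSE-270 line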
Description: SANGER: Inhibition of human KYSE-270 cell growth in a cell viability assay.

[18] = test system: MDA-MB-231; format: functional, cell-based, Homo sapiens
Description: SANGER: Inhibition of human MDA-MB-231 cell growth in a cell viability assay.

[19] = test system: MHH-NB-11; format: functional, cell-based, Homo sapiens;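 note: growth inhibition of human MHH-NB-11 cells, read out by a cell viability assay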
Description: SANGER: Inhibition of human MHH-NB-11 cell growth in a cell viability assay.

[20] = test system: MKN-1; format: functional, cell-based, Homo sapiens;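 note: growth inhibition of human MKN1 cells, read out by a cell viability measurement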
Description: SANGER: Inhibition of human MKN1 cell growth in a cell viability assay.

[21] = test system: MMAC-SF; format: functional, cell-based, Homo sapiens;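 note: growth inhibition of human MMAC-SF cells, read out with a cell viability assay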
Description: SANGER: Inhibition of human MMAC-SF cell growth in a cell viability assay.

[22] = test system: MS-1; format: functional, cell-based; settings: Homo sapiens;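 note: growth inhibition of MS-1 cells, read out by cell viability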
Description: SANGER: Inhibition of human MS-1 cell growth in a cell viability assay.

[23] = test system: NCI-H1092; format: functional, cell-based; settings: Homo sapiens;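 note: cell growth inhibition measured with a cell viability assay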
Description: SANGER: Inhibition of human NCI-H1092 cell growth in a cell viability assay.

[24] = test system: NCI-H1299; format: functional, cell-based, Homo sapiens;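 note: growth inhibition of human NCI-H1299 cells, read out by a cell viability assay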
Description: SANGER: Inhibition of human NCI-H1299 cell growth in a cell viability assay.

[25] = test system: NCI-H2452; format: functional, cell-based, Homo sapiens;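 note: growth inhibition of NCI-H2452 cells, read out with a cell viability assay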
Description: SANGER: Inhibition of human NCI-H2452 cell growth in a cell viability assay.

[26] = test system: NCI-H661; format: functional, cell-based, Homo sapiens;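 note: cell viability assay read-out, IC50 being the concentration that inhibits growth of the cells by half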
Description: SANGER: Inhibition of human NCI-H661 cell growth in a cell viability assay.

[27] = test system: NCI-N87; format: functional, cell-based, Homo sapiens;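 note: growth inhibition of human NCI-N87 cells, read out with a cell viability assay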
Description: SANGER: Inhibition of human NCI-N87 cell growth in a cell viability assay.

[28] = test system: OAW-28; format: functional, cell-based, Homo sapiens;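 note: growth inhibition of OAW-28 cells, read out with a cell viability assay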
Description: SANGER: Inhibition of human OAW-28 cell growth in a cell viability assay.

[29] = test system: OVCAR-5; format: functional, cell-based, Homo sapiens;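 note: growth inhibition of human OVCAR-5 cells, read out with a cell viability assay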
Description: SANGER: Inhibition of human OVCAR-5 cell growth in a cell viability assay.

[30] = test system: P12-Ichikawa; format: functional, cell-based; settings: Homo sapiens
[31] = test system: PFSK-1; format: functional, cell-based, Homo sapiens;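 note: cell viability assay measuring how strongly compounds suppress growth of human PFSK-1 cells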
Description: SANGER: Inhibition of human PFSK-1 cell growth in a cell viability assay.

[32] = test system: RO82-W-1; format: functional, cell-based, Homo sapiens;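 note: growth inhibition of human RO82-W-1 cells, measured with a cell viability assay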
Description: SANGER: Inhibition of human RO82-W-1 cell growth in a cell viability assay.

[33] = test system: RS4-11; format: functional, cell-based; settings: Homo sapiens;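 note: growth inhibition of RS4-11 cells, read out by a cell viability assay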
Description: SANGER: Inhibition of human RS4-11 cell growth in a cell viability assay.

[34] = test system: SBC-1; format: functional, cell-based; settings: Homo sapiens;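 note: cell viability assay measuring growth inhibition of the SBC-1 cell line, IC50 being the concentration that halves growth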
Description: SANGER: Inhibition of human SBC-1 cell growth in a cell viability assay.

[35] = test system: SBC-5; format: functional, cell-based, Homo sapiens;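 note: cell viability assay read-out, IC50 is the concentration that inhibits growth of the cells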
Description: SANGER: Inhibition of human SBC-5 cell growth in a cell viability assay.

[36] = test system: SCC-15; format: functional, cell-based, Homo sapiens;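 note: growth inhibition of SCC-15 cells, read out with a cell viability assay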
Description: SANGER: Inhibition of human SCC-15 cell growth in a cell viability assay.

[37] = test system: SCC-4; format: functional, cell-based, Homo sapiens;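 note: growth inhibition of human SCC-4 cells, read out as cell viability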
Description: SANGER: Inhibition of human SCC-4 cell growth in a cell viability assay.

[38] = test system: SK-N-DZ; format: functional, cell-based, Homo sapiens;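 note: growth inhibition of the cancer cell line, read out through a viability assay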
Description: SANGER: Inhibition of human SK-N-DZ cell growth in a cell viability assay.

[39] = test system: SKG-IIIa; format: functional, cell-based, Homo sapiens;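 note: cell growth inhibition, read out with a cell viability assay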
Description: SANGER: Inhibition of human SKG-IIIa cell growth in a cell viability assay.

[40] = test system: SW982; format: functional, cell-based; settings: Homo sapiens;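 note: growth inhibition of SW982 cells, read out with a cell viability assay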
Description: SANGER: Inhibition of human SW982 cell growth in a cell viability assay.

[41] = test system: T84; format: functional, cell-based, Homo sapiens;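 note: growth inhibition measured with a cell viability readout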
Description: SANGER: Inhibition of human T84 cell growth in a cell viability assay.

[42] = test system: 697; format: functional, cell-based; settings: Homo sapiens
Description: SANGER: Inhibition of human 697 cell growth in a cell viability assay.

[43] = test system: 769-P; format: functional, cell-based, Homo sapiens
Description: SANGER: Inhibition of human 769-P cell growth in a cell viability assay.

[44] = test system: A2058; format: functional, cell-based; settings: Homo sapiens;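 note: reduction of A2058 cell growth, read out with a viability assay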
Description: SANGER: Inhibition of human A2058 cell growth in a cell viability assay.

[45] = test system: CAL-120; format: functional, cell-based, Homo sapiens;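 note: cell growth inhibition, read out as cell viability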
Description: SANGER: Inhibition of human CAL-120 cell growth in a cell viability assay.

[46] = test system: CAL-39; format: functional, cell-based, Homo sapiens;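 note: cell viability assay measuring growth inhibition of CAL-39 cells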
Description: SANGER: Inhibition of human CAL-39 cell growth in a cell viability assay.

[47] = test system: TE-6; format: functional, cell-based, Homo sapiens;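 note: growth inhibition of TE-6 cells, read out with a cell viability assay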
Description: SANGER: Inhibition of human TE-6 cell growth in a cell viability assay.

[48] = test system: TE-8; format: functional, cell-based, Homo sapiens;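 note: growth inhibition of TE-8 cells, measured with a cell viability readout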
Description: SANGER: Inhibition of human TE-8 cell growth in a cell viability assay.

[49] = test system: U-266; format: functional, cell-based; settings: Homo sapiens
Description: SANGER: Inhibition of human U-266 cell growth in a cell viability assay.

[50] = test system: CAS-1; format: functional, cell-based, Homo sapiens;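 note: growth inhibition of CAS-1 cells, measured with a cell viability assay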
[51] = test system: CHL-1; format: functional, cell-based, Homo sapiens;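 note: cell growth inhibition, read out with a cell viability assay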
Description: SANGER: Inhibition of human CHL-1 cell growth in a cell viability assay.

[52] = test system: COLO-680N; format: functional, cell-based, Homo sapiens;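 note: cell viability assay used to measure inhibition of COLO-680N cell growth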
Description: SANGER: Inhibition of human COLO-680N cell growth in a cell viability assay.

## CN(C)C/C=C/C(=O)Nc1cc2c(Nc3ccc(F)c(Cl)c3)ncnc2cc1O[C@H]1CCOC1 [AFATINIB]
[1]; Homo sapiens, ES3
  IC50: > 0.5 µM
[2]
  IC50: > 0.5 µM
[3]; Homo sapiens, GB-1
  IC50: > 0.5 µM
[4]; Homo sapiens, GCIY
  IC50: > 0.5 µM
[5]; Homo sapiens, GOTO
  IC50: > 0.5 µM
[6]
  IC50: > 0.5 µM
[7]; Homo sapiens, GT3TKB
  IC50: > 0.5 µM
[8]
  IC50: > 0.5 µM
[9]; Homo sapiens, HCC1395
  IC50: > 0.5 µM
[10]; Homo sapiens, HCC1419
  IC50: 0.364 µM
[11]; Homo sapiens, HCC1937
  IC50: > 0.5 µM
[12]; Homo sapiens, HPAF-II
  IC50: > 0.5 µM
[13]; Homo sapiens, HuCCT-1
  IC50: > 0.5 µM
[14]; Homo sapiens, HuP-T4
  IC50: > 0.5 µM
[15]
  IC50: > 0.5 µM
[16]; Homo sapiens, KYSE-140
  IC50: 0.0833 µM
[17]; Homo sapiens, KYSE-270
  IC50: > 0.5 µM
[18]; Homo sapiens, MDA-MB-231
  IC50: > 0.5 µM
[19]; Homo sapiens, MHH-NB-11
  IC50: > 0.5 µM
[20]; Homo sapiens, MKN-1
  IC50: > 0.5 µM
[21]; Homo sapiens, MMAC-SF
  IC50: > 0.5 µM
[22]
  IC50: > 0.5 µM
[23]
  IC50: > 0.5 µM
[24]; Homo sapiens, NCI-H1299
  IC50: > 0.5 µM
[25]; Homo sapiens, NCI-H2452
  IC50: > 0.5 µM
[26]; Homo sapiens, NCI-H661
  IC50: > 0.5 µM
[27]; Homo sapiens, NCI-N87
  IC50: 0.0277 µM
[28]; Homo sapiens, OAW-28
  IC50: > 0.5 µM
[29]; Homo sapiens, OVCAR-5
  IC50: > 0.5 µM
[30]
  IC50: > 0.5 µM
[31]; Homo sapiens, PFSK-1
  IC50: > 0.5 µM
[32]; Homo sapiens, RO82-W-1
  IC50: > 0.5 µM
[33]
  IC50: > 0.5 µM
[34]
  IC50: 0.19 µM
[35]; Homo sapiens, SBC-5
  IC50: > 0.5 µM
[36]; Homo sapiens, SCC-15
  IC50: > 0.5 µM
[37]; Homo sapiens, SCC-4
  IC50: > 0.5 µM
[38]; Homo sapiens, SK-N-DZ
  IC50: > 0.5 µM
[39]; Homo sapiens, SKG-IIIa
  IC50: > 0.5 µM
[40]
  IC50: > 0.5 µM
[41]; Homo sapiens, T84
  IC50: > 0.5 µM
[42]
  IC50: > 0.5 µM
[43]; Homo sapiens, 769-P
  IC50: > 0.5 µM
[44]
  IC50: > 0.5 µM
[45]; Homo sapiens, CAL-120
  IC50: > 0.5 µM
[46]; Homo sapiens, CAL-39
  IC50: 0.118 µM
[47]; Homo sapiens, TE-6
  IC50: 0.402 µM
[48]; Homo sapiens, TE-8
  IC50: > 0.5 µM
[49]
  IC50: > 0.5 µM
[50]; Homo sapiens, CAS-1
  IC50: > 0.5 µM
[51]; Homo sapiens, CHL-1
  IC50: 0.0184 µM
[52]; Homo sapiens, COLO-680N
  IC50: > 0.5 µM

## Cc1cc([C@@H](C)Nc2ccccc2C(=O)O)c2nc(N3CCOCC3)cc(=O)n2c1 [AZD-6482]
[1]; Homo sapiens, ES3
  IC50: > 5.12 µM
[1]; es3
  IC50: > 5.12 µM
[2]
  IC50: > 5.12 µM
[3]; gb-1
  IC50: > 5.12 µM
[4]; gciy
  IC50: > 5.12 µM and 2.2 µM
[5]; Homo sapiens, GOTO
  IC50: > 5.12 µM
[5]; goto
  IC50: > 5.12 µM
[6]
  IC50: > 5.12 µM
[7]; gt3tkb
  IC50: > 5.12 µM
[8]
  IC50: > 5.12 µM
[9]; Homo sapiens, HCC1395
  IC50: > 5.12 µM
[9]; hcc1395
  IC50: > 5.12 µM
[10]; hcc1419
  IC50: > 5.12 µM
[11]; hcc1937
  IC50: > 5.12 µM
[12]; hpaf-ii
  IC50: > 5.12 µM
[13]; hucct1
  IC50: > 5.12 µM and 1.24 µM
[14]; hup-t4
  IC50: > 5.12 µM
[15]
  IC50: > 5.12 µM
[16]; kyse-140
  IC50: > 5.12 µM
[17]; kyse-270
  IC50: > 5.12 µM
[18]; Homo sapiens, MDA-MB-231
  IC50: > 5.12 µM
[18]; mda-mb-231
  IC50: > 5.12 µM
[19]; mhh-nb-11
  IC50: > 5.12 µM
[20]; mkn-1
  IC50: > 5.12 µM
[21]; mmac-sf
  IC50: > 5.12 µM
[22]
  IC50: > 5.12 µM
[23]
  IC50: > 5.12 µM
[24]; nci-h1299
  IC50: 3.67 µM and > 5.12 µM
[25]; nci-h2452
  IC50: > 5.12 µM
[26]; nci-h661
  IC50: > 5.12 µM
[27]; nci-n87
  IC50: > 5.12 µM
[28]; Homo sapiens, OAW-28
  IC50: > 5.12 µM
[28]; oaw-28
  IC50: > 5.12 µM
[29]; ovcar-5
  IC50: > 5.12 µM
[30]
  IC50: > 5.12 µM
[31]; pfsk-1
  IC50: > 5.12 µM
[32]; ro82-w-1
  IC50: > 5.12 µM
[33]
  IC50: 0.738 µM
[34]
  IC50: > 5.12 µM
[35]; Homo sapiens, SBC-5
  IC50: > 5.12 µM
[35]; sbc-5
  IC50: > 5.12 µM
[36]; scc-15
  IC50: > 5.12 µM
[37]; scc-4
  IC50: > 5.12 µM
[38]; sk-n-dz
  IC50: > 5.12 µM and 2.32 µM
[39]; skg-iiia
  IC50: > 5.12 µM
[41]; t84
  IC50: > 5.12 µM
[42]
  IC50: 4.6 µM
[43]; 769-p
  IC50: > 5.12 µM
[44]
  IC50: > 5.12 µM
[45]; cal-120
  IC50: > 5.12 µM
[46]; cal-39
  IC50: 2 µM and > 5.12 µM
[47]; te-6
  IC50: > 5.12 µM
[48]; te-8
  IC50: > 5.12 µM
[49]
  IC50: > 5.12 µM
[50]; Homo sapiens, CAS-1
  IC50: > 5.12 µM
[50]; cas-1
  IC50: > 5.12 µM
[51]; Homo sapiens, CHL-1
  IC50: > 5.12 µM
[51]; chl-1
  IC50: 4.72 µM
[52]; colo-680n
  IC50: > 5.12 µM
